US7118895B2, “Process for producing aglycon by using diglycosidase and flavor-improved food containing the aglycon and converting agent to be used in the process” (Amano Enzyme Inc., priority 2000, dated 2006)

Experiments:
[1] = system: β-Glucosidase derived from A. niger; test: Reactivity toward various isoflavone glycosides (HPLC); format: biochemical, Aspergillus niger; set-up: glucoside / aglycon: unit not given here; settings: 55 °C, pH 4.0
How it was run: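 Enzymes at 0.75 AU/mL in pH 4.0 acetate buffer were reacted at 55° C with individual isoflavone glycosides (substrate stock 2 mM in methanol) in 20 mM acetate pH 4.0. Aglycone release followed at 0, 1, 3 and 6 h: ethanol-quenched, ODS HPLC with UV 260 nm, quantified against calibration curves.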

Crude diglycosidase = test: Examination of substrate concentration in the conversion into isoflavone aglycons by diglycosidase using soybean materials; format: biochemical, Penicillium multicolor IAM7153;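 note: percent of the isoflavone family total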
How it was run: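 Soybean materials (roasted soy flour, soymilk, defatted soybean, concentrated soy protein) at 2–30% (w/v) in 20 mM acetate pH 4.0 were reacted with crude diglycosidase at 55° C with shaking; enzyme solution added was 1.88 AU/mL. Samples taken at 0, 1, 3 and 6 h were ethanol-extracted and analyzed by HPLC.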

aglycon ([1]; Reaction time 0 h): 0
glucoside ([1]; Reaction time 0 h): 100
aglycon ([1]; Reaction time 1 h): 1.2
glucoside ([1]; Reaction time 1 h): 98.8
aglycon ([1]; Reaction time 3 h): 4.4
glucoside ([1]; Reaction time 3 h): 95.6
aglycon ([1]; Reaction time 6 h): 9.1
glucoside ([1]; Reaction time 6 h): 90.9
Decomposition efficiency: ratio of each glycoside/aglycon within its isoflavone family (Crude diglycosidase; concentrated soybean protein, substrate concentration 2%, heat treatment of enzyme no, reaction time 0 h): 0.4%
Decomposition efficiency: ratio of each glycoside/aglycon within its isoflavone family (Crude diglycosidase; concentrated soybean protein, substrate concentration 2%, heat treatment of enzyme no, reaction time 1 h): 0.4%
Decomposition efficiency: ratio of each glycoside/aglycon within its isoflavone family (Crude diglycosidase; concentrated soybean protein, substrate concentration 2%, heat treatment of enzyme no, reaction time 3 h): 0.2%
Decomposition efficiency: ratio of each glycoside/aglycon within its isoflavone family (Crude diglycosidase; concentrated soybean protein, substrate concentration 2%, heat treatment of enzyme no, reaction time 6 h): not detected
Decomposition efficiency: ratio of each glycoside/aglycon within its isoflavone family (Crude diglycosidase; concentrated soybean protein, substrate concentration 2%, heat treatment of enzyme yes, reaction time 6 h): 0.4%
Decomposition efficiency: ratio of each glycoside/aglycon within its isoflavone family (Crude diglycosidase; concentrated soybean protein, substrate concentration 5%, heat treatment of enzyme no, reaction time 0 h): 0.4%
Decomposition efficiency: ratio of each glycoside/aglycon within its isoflavone family (Crude diglycosidase; concentrated soybean protein, substrate concentration 5%, heat treatment of enzyme no, reaction time 1 h): 0.5%
Decomposition efficiency: ratio of each glycoside/aglycon within its isoflavone family (Crude diglycosidase; concentrated soybean protein, substrate concentration 5%, heat treatment of enzyme no, reaction time 3 h): 0.4%
Decomposition efficiency: ratio of each glycoside/aglycon within its isoflavone family (Crude diglycosidase; concentrated soybean protein, substrate concentration 5%, heat treatment of enzyme no, reaction time 6 h): 0.2%
Decomposition efficiency: ratio of each glycoside/aglycon within its isoflavone family (Crude diglycosidase; concentrated soybean protein, substrate concentration 5%, heat treatment of enzyme yes, reaction time 6 h): 0.4%
Decomposition efficiency: ratio of each glycoside/aglycon within its isoflavone family (Crude diglycosidase; concentrated soybean protein, substrate concentration 10%, heat treatment of enzyme no, reaction time 0 h): 0.3%
Decomposition efficiency: ratio of each glycoside/aglycon within its isoflavone family (Crude diglycosidase; concentrated soybean protein, substrate concentration 10%, heat treatment of enzyme no, reaction time 1 h): 0.4%
Decomposition efficiency: ratio of each glycoside/aglycon within its isoflavone family (Crude diglycosidase; concentrated soybean protein, substrate concentration 10%, heat treatment of enzyme no, reaction time 3 h): 0.3%
Decomposition efficiency: ratio of each glycoside/aglycon within its isoflavone family (Crude diglycosidase; concentrated soybean protein, substrate concentration 10%, heat treatment of enzyme no, reaction time 6 h): 0.3%
Decomposition efficiency: ratio of each glycoside/aglycon within its isoflavone family (Crude diglycosidase; concentrated soybean protein, substrate concentration 10%, heat treatment of enzyme yes, reaction time 6 h): 0.3%
Decomposition efficiency: ratio of each glycoside/aglycon within its isoflavone family (Crude diglycosidase; concentrated soybean protein, substrate concentration 20%, heat treatment of enzyme no, reaction time 0 h): 0.2%
Decomposition efficiency: ratio of each glycoside/aglycon within its isoflavone family (Crude diglycosidase; concentrated soybean protein, substrate concentration 20%, heat treatment of enzyme no, reaction time 1 h): 0.3%
Decomposition efficiency: ratio of each glycoside/aglycon within its isoflavone family (Crude diglycosidase; concentrated soybean protein, substrate concentration 20%, heat treatment of enzyme no, reaction time 3 h): 0.2%
Decomposition efficiency: ratio of each glycoside/aglycon within its isoflavone family (Crude diglycosidase; concentrated soybean protein, substrate concentration 20%, heat treatment of enzyme no, reaction time 6 h): 0.3%
Decomposition efficiency: ratio of each glycoside/aglycon within its isoflavone family (Crude diglycosidase; concentrated soybean protein, substrate concentration 20%, heat treatment of enzyme yes, reaction time 6 h): 0.4%
Decomposition efficiency: ratio of each glycoside/aglycon within its isoflavone family (Crude diglycosidase; concentrated soybean protein, substrate concentration 30%, heat treatment of enzyme no, reaction time 0 h): 0.4%
Decomposition efficiency: ratio of each glycoside/aglycon within its isoflavone family (Crude diglycosidase; concentrated soybean protein, substrate concentration 30%, heat treatment of enzyme no, reaction time 1 h): 0.6%
Decomposition efficiency: ratio of each glycoside/aglycon within its isoflavone family (Crude diglycosidase; concentrated soybean protein, substrate concentration 30%, heat treatment of enzyme no, reaction time 3 h): 0.5%
Decomposition efficiency: ratio of each glycoside/aglycon within its isoflavone family (Crude diglycosidase; concentrated soybean protein, substrate concentration 30%, heat treatment of enzyme no, reaction time 6 h): 0.3%
Decomposition efficiency: ratio of each glycoside/aglycon within its isoflavone family (Crude diglycosidase; concentrated soybean protein, substrate concentration 30%, heat treatment of enzyme yes, reaction time 6 h): 0.4%
Decomposition efficiency: ratio of each glycoside/aglycon within its isoflavone family (Crude diglycosidase; defatted soybean, substrate concentration 2%, heat treatment of enzyme no, reaction time 0 h): not detected
Decomposition efficiency: ratio of each glycoside/aglycon within its isoflavone family (Crude diglycosidase; defatted soybean, substrate concentration 2%, heat treatment of enzyme no, reaction time 1 h): not detected
Decomposition efficiency: ratio of each glycoside/aglycon within its isoflavone family (Crude diglycosidase; defatted soybean, substrate concentration 2%, heat treatment of enzyme no, reaction time 3 h): not detected
Decomposition efficiency: ratio of each glycoside/aglycon within its isoflavone family (Crude diglycosidase; defatted soybean, substrate concentration 2%, heat treatment of enzyme no, reaction time 6 h): not detected
Decomposition efficiency: ratio of each glycoside/aglycon within its isoflavone family (Crude diglycosidase; defatted soybean, substrate concentration 2%, heat treatment of enzyme yes, reaction time 6 h): not detected
Decomposition efficiency: ratio of each glycoside/aglycon within its isoflavone family (Crude diglycosidase; defatted soybean, substrate concentration 5%, heat treatment of enzyme no, reaction time 0 h): 58.4%
Decomposition efficiency: ratio of each glycoside/aglycon within its isoflavone family (Crude diglycosidase; defatted soybean, substrate concentration 5%, heat treatment of enzyme no, reaction time 1 h): 41.6%
Decomposition efficiency: ratio of each glycoside/aglycon within its isoflavone family (Crude diglycosidase; defatted soybean, substrate concentration 5%, heat treatment of enzyme no, reaction time 3 h): 31.8%
Decomposition efficiency: ratio of each glycoside/aglycon within its isoflavone family (Crude diglycosidase; defatted soybean, substrate concentration 5%, heat treatment of enzyme no, reaction time 6 h): 19.5%
Decomposition efficiency: ratio of each glycoside/aglycon within its isoflavone family (Crude diglycosidase; defatted soybean, substrate concentration 5%, heat treatment of enzyme yes, reaction time 6 h): 58.5%
Decomposition efficiency: ratio of each glycoside/aglycon within its isoflavone family (Crude diglycosidase; defatted soybean, substrate concentration 10%, heat treatment of enzyme no, reaction time 0 h): 53.0%
Decomposition efficiency: ratio of each glycoside/aglycon within its isoflavone family (Crude diglycosidase; defatted soybean, substrate concentration 10%, heat treatment of enzyme no, reaction time 1 h): 54.7%
Decomposition efficiency: ratio of each glycoside/aglycon within its isoflavone family (Crude diglycosidase; defatted soybean, substrate concentration 10%, heat treatment of enzyme no, reaction time 3 h): 36.6%
Decomposition efficiency: ratio of each glycoside/aglycon within its isoflavone family (Crude diglycosidase; defatted soybean, substrate concentration 10%, heat treatment of enzyme no, reaction time 6 h): 27.9%
Decomposition efficiency: ratio of each glycoside/aglycon within its isoflavone family (Crude diglycosidase; defatted soybean, substrate concentration 10%, heat treatment of enzyme yes, reaction time 6 h): 57.6%
Decomposition efficiency: ratio of each glycoside/aglycon within its isoflavone family (Crude diglycosidase; roasted soy flour, substrate concentration 2%, heat treatment of enzyme no, reaction time 0 h): not detected
SMILES: COc1cc2c(=O)c(-c3ccc(O)cc3)coc2cc1O[C@@H]1O[C@H](COC(=O)CC(=O)O)[C@@H](O)[C@H](O)[C@H]1O [malonylglycitin, 6″-O-malonylglycitin]
